Assay results as given in publication PMC13415951 (Journal of Experimental Botany, 2026).

Key:
OsUGT79 [1] = molecular target: T1, OsUGT79 (Oryza sativa subsp. japonica, UniProt Q7XT97); experiment: biochemical; type: biochemical
T1 construct: made in house; host or cells: E. coli
T1 sequence (Q7XT97 1-466): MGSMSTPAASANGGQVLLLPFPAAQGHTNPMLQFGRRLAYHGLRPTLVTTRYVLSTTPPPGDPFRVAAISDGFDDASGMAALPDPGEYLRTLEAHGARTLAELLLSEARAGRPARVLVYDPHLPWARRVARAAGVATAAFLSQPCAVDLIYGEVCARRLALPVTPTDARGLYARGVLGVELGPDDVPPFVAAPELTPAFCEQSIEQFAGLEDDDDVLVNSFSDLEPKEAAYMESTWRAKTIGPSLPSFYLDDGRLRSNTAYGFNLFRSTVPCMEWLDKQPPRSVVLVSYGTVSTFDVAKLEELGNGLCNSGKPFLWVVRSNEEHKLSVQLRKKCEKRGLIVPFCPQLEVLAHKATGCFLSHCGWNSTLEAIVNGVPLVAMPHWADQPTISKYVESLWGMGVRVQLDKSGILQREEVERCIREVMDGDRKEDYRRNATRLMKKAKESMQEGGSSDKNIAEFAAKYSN

animal cells = test system: animal cells; design: method as in Gruber-Dorninger et al., 2017; settings: in vitro assays; ref Gruber-Dorninger et al., 2017; cited from earlier work
HvUGT13248 = molecular target: T2, HvUGT13248 (Hordeum vulgare subsp. vulgare, UniProt M0Y4P1); experiment: biochemical; settings: read-out: Glucosylation rate of DON, percentage of the control
T2 sequence (M0Y4P1 1-475): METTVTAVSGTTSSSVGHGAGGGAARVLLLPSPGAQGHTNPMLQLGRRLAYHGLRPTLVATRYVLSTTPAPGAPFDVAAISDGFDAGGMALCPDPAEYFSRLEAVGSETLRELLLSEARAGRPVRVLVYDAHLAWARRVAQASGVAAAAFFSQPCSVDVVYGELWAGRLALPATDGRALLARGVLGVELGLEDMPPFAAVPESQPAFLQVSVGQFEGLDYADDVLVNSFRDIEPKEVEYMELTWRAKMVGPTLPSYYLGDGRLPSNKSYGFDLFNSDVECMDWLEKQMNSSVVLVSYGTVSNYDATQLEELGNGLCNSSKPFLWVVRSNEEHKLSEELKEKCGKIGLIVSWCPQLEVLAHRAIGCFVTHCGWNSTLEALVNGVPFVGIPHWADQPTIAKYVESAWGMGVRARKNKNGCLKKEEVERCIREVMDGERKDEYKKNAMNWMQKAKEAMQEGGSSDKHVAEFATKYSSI

[2] = test system: wheat cultivar Apogee seedlings; design: species or system Triticum aestivum; settings: in vivo
[3] = test system: human glucuronosyltransferases in liver microsomes; design: method as in Woelflingseder et al., 2019; settings: ref Woelflingseder et al., 2019; cited from earlier work
piglets = test system: piglets; design: method as in Rotter et al., 1992; settings: ref Rotter et al., 1992; cited from earlier work
OsUGT79 [4] = molecular target: T1, OsUGT79; experiment: biochemical; type: biochemical; remark: listed apart in the source
[5] = read-out: Glucosylation rate of DON, percentage of the control

CC1(C)CCC[C@]2(C)[C@@H]3[C@H]1[C@@H](O)[C@@]2(C)C[C@H]3O [CUL, culmorin]
CUL glucosylation rate compared with DON (OsUGT79 [1]): 1–2%
Specific activity (glucoside formation) (OsUGT79 [1]): 1.85 ± 0.05 nmol/min/mg
remaining activity at 25 µM (OsUGT79 [1]; [5]): 64 ± 3%
remaining activity at 125 µM (OsUGT79 [1]; [5]): 33 ± 4%
Toxicity to animal cells (animal cells): low toxicity
remaining activity at 25 µM (HvUGT13248): 59 ± 6%
remaining activity at 125 µM (HvUGT13248): 13%
Effect of CUL applied together with DON on root length [2]: significantly increased the degree of reduction of root length
Effect on primary and total root length [2]: did not cause a significant change
Effect on DON-glucuronidation [3]: suppresses DON-glucuronidation
Effect on growth of piglets (piglets): no negative effects
K iu of CUL (uncompetitive inhibition, DON as variable substrate) (OsUGT79 [4]): 208 µM
K iu of CUL (uncompetitive inhibition, UDP-glucose as variable substrate) (OsUGT79 [4]): 124 µM
Ki (OsUGT79 [4]): 146 µM
